From PubChem BioAssay AID1259420 (Broad Institute, 2018) come the findings set out here.

Values joined by “and” are separate entries in the source; they are usually repeats but may differ in a detail not shown here. Equal values may be shown once. Records with an inconclusive call do not appear. Active and inactive are the calls of the source. The rule behind the calls is not given here.

The test system of this assay is Toxoplasma gondii growth in host cells, no IFN-gamma. The experiment in a line: T. gondii intracellular growth, IFN-gamma absent, dose response, cell-based (AID 1259420).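 Note: host cells were HeLa; final incubation lasted 72 hours.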

The AC50 is the concentration at which the activity in the assay is half-maximal. Take `Cc1cccc(-c2ccc([C@@H]3[C@H](CO)N4CCCCN(S(=O)(=O)c5ccccc5F)C[C@@H]34)cc2)c1`: the AC50 is 19.7 µM. As for `COc1cc(N2CCO[C@H]3[C@@H](Oc4ncccc4F)CC[C@H]32)ncn1`, the figure is 6.3 µM; as for `Cc1cccc(-c2ccc(C3[C@@H]4CN(Cc5cccc(F)c5)C[C@H]3N4)cc2)c1` (some centres not stated), 19.4 µM. As to `O=C(O)CN1C[C@H]2c3ccccc3C(OCC3CC3)[C@@H]2C1` (some centres not stated), the AC50 was > 39 µM (inactive). Take `O=C(Cc1ccccc1)N1CC(=O)N2[C@H](C1)[C@@H](c1ccc(-c3ccc(F)cc3)cc1)[C@@H]2CO`: the AC50 is 24.7 µM.

In the case of `COc1cccc(-c2ccc(C3[C@H]4CNC[C@@H]3N4Cc3nccs3)cc2)c1` (some centres not stated), the AC50 was 18.7 µM.

With `Cc1ccccc1-c1ccc([C@H]2[C@@H](CO)N3CCCCN(S(=O)(=O)Cc4ccccc4)C[C@H]23)cc1`, the concentration at half-maximal activity (AC50) is 22.7 µM.

Consider `C[C@@H]1CN([C@@H](C)CO)C(=O)c2cccc(NC(=O)NC3CCCCC3)c2O[C@H]1CN(C)Cc1ccc(C(F)(F)F)cc1`, for which the AC50 was > 39 µM (inactive).

Regarding `COc1ccccc1NC(=O)N1CCCCN2[C@H](CO)[C@@H](c3ccc(-c4cccc(C#N)c4)cc3)[C@@H]2C1`, the AC50 is 16.4 µM. With `CCCNC(=O)c1cc(-c2cnc(NCc3ccccc3)nc2)cn1C`, the AC50 is 15.1 µM. Consider `CCCC#Cc1ccc([C@@H]2[C@H]3CN(C(=O)Nc4cccc(F)c4)CC(=O)N3[C@H]2CO)cc1`, for which the AC50 is 29.4 µM and 14.9 µM. The result for `CCOC(=O)N1CCC(N[C@H]2COC[C@@H]2OCC)CC1` reads 36.8 µM; that for `O=C(O)CC1CCC(c2ccc(-c3ccc(Nc4ccc(C(F)(F)F)nc4)cn3)cc2)CC1` (configuration not stated), 17.2 µM; that for `CC(C)CC#Cc1ccc([C@H]2[C@@H](CO)N3CCCCN(C(=O)Nc4ccccc4)C[C@@H]23)cc1`, 15.5 µM.

For `O=S(=O)(c1ccccc1F)N1CC[C@@H]2[C@@H](CO)Nc3ccc(C4=CCCCC4)cc3[C@@H]21`, the AC50 was 11.8 µM. Turning to `COc1ccc(NC(=O)N2CCCCN3[C@H](CO)[C@@H](c4ccc(-c5ccccc5F)cc4)[C@@H]3C2)cc1`, the AC50 was 19.1 µM. The result for `Cc1ccc(Nc2nc(N)nc(CN3CCc4ccccc4C3)n2)cc1` reads > 10 µM (inactive). The result for `COc1ccc(C#Cc2ccc([C@@H]3[C@@H](CO)N4C(=O)CN(C(=O)NC(C)C)C[C@@H]34)cc2)cc1` reads > 39 µM (inactive); that for `Cc1ccc(S(=O)(=O)N2CC[C@@H]3[C@H]2c2cc(-c4ccccc4F)ccc2N(C)[C@H]3CO)cc1`, 20.4 µM. As for `O=C(NCCN1CCCC1)[C@H]1[C@H](CO)[C@H]2Cn3c(cccc3=O)[C@H]2N1Cc1ccccn1`, the figure is > 39 µM (inactive); as for `O=C(C[C@@H]1CC[C@@H]2[C@H](COC[C@@H](O)CN2Cc2ccc(Oc3ccccc3)cc2)O1)N1CCN(c2ccccc2)CC1`, 16.5 µM. As for `N#Cc1cccc(-c2ccc(C3[C@@H]4CN(C(=O)Nc5ccc(C(F)(F)F)cc5)C[C@H]3N4)cc2)c1` (some centres not stated), the AC50 was 14.4 µM and 14.6 µM. Turning to `N#Cc1cccc(C(=O)N2CCC3C2CC(=O)N3Cc2ccncc2)c1` (configuration not stated), the AC50 is > 20 µM (inactive).

For `COc1cccc(-c2nc3c(s2)CN(S(=O)(=O)c2ccc(C)cc2)CC3)c1`, the AC50 was 34 µM. The result for `O=C(Nc1cccc(F)c1)N1CCCCN2[C@H](CO)[C@@H](c3ccc(C#Cc4cccnc4)cc3)[C@H]2C1` reads 23.6 µM; that for `CN1CCN(C(=O)c2nn(C)c3c2CCN(S(C)(=O)=O)C3)CC1`, > 39 µM (inactive). The result for `C/C=C/c1ccc([C@H]2[C@H](CO)N3CCCCN(S(=O)(=O)c4ccc(OC)cc4)C[C@@H]23)cc1` reads 19.1 µM. As for `Cc1cccc(-c2nc(CN(c3ccccc3)S(=O)(=O)c3ccccc3)c(C)o2)c1`, the figure is 17.4 µM; as for `COCC#Cc1ccc([C@@H]2[C@H]3CN(C(=O)C4CCCCC4)CC(=O)N3[C@H]2CO)cc1`, > 39 µM (inactive). In the case of `N#Cc1cccc(-c2ccc3c(c2)[C@@H]2[C@@H](CCN2S(=O)(=O)c2ccc(F)cc2)[C@@H](CO)N3)c1`, the AC50 is 14.5 µM. As for `Cc1ccc(S(=O)(=O)N2C[C@H](O)COC[C@@H]3O[C@H](CC(=O)NCc4ccc5c(c4)OCO5)CC[C@H]32)cc1`, the AC50 is > 39 µM (inactive). Consider `O=C(CC1CC1)N1CC[C@@H]2[C@@H](CO)Nc3ccc(-c4ccc(F)cc4)cc3[C@@H]21`, for which the AC50 was 20.2 µM. As for `COCCN1C(=O)CCC12CCC(NC(=O)c1cc(C)on1)CC2` (configuration not stated), the figure is > 39 µM (inactive).

On to `CCc1ccccc1S(=O)(=O)N1CCc2nc(-c3ccc(OC)cc3)sc2C1`, for which the half-maximal activity concentration (AC50) is 4.35 µM. As for `COc1cccc(S(=O)(=O)N2CCCCN3[C@H](CO)[C@@H](c4ccc(C#CCC(C)C)cc4)[C@H]3C2)c1`, the AC50 is 12.1 µM and 13.6 µM and 21.9 µM. With `O=C(NC1CCC12CCN(Cc1ccoc1)CC2)c1cnccn1` (configuration not stated), the AC50 is > 39 µM (inactive). The result for `COc1ccccc1NC(=O)N1C[C@H](O)COC[C@@H]2O[C@@H](CC(=O)N3CCC(Cc4ccccc4)CC3)CC[C@H]21` reads > 39 µM (inactive); that for `COc1ccc(NC(=O)N2CC[C@@H]3[C@H]2c2cc(C4=CCCCC4)ccc2N(C)[C@H]3CO)cc1`, 17.8 µM; that for `O=C(Cc1ccccc1)N1CC[C@H]2[C@H](CO)Nc3ccc(C4=CCCCC4)cc3[C@H]21`, 13.9 µM. As for `O=C(Nc1cccc(F)c1)N1CCCCN2[C@@H](CO)[C@H](c3ccc(C#Cc4cccnc4)cc3)[C@@H]2C1`, the figure is 3.04 µM. The result for `CCN1C[C@@H](COC)[C@]2(CCN(C(=O)COc3ccccc3C)C2)C1` reads > 39 µM (inactive); that for `CN(C)C(=O)c1ccc(-c2ccc([C@H]3[C@@H](CO)N4C(=O)CN(C(=O)CC5CC5)C[C@@H]34)cc2)cc1`, > 39 µM (inactive); that for `COc1cc([C@@H]2c3cc4c(cc3C(OC3O[C@@H]5COC(C)O[C@H]5[C@H](O)[C@H]3O)C3COC(=O)[C@@H]32)OCO4)cc(OC)c1O` (some centres not stated), 23.5 µM.

`COc1ccc(-c2nc(Nc3ccc(CN4CCCCC4)cc3)c3ccccc3n2)cc1`: the AC50 is 18.5 µM. The result for `C/C=C/c1ccc([C@H]2[C@@H](CO)N3CCCCN(S(=O)(=O)c4ccc(OC)cc4)C[C@@H]23)cc1` reads 32.2 µM. Take `CC(C)NC(=O)N1CCC2(CC1)OCCN(CCO)c1ccccc12`: the AC50 is > 39 µM (inactive).

For the compound `Cc1ccn(CCNc2nccc(-c3c(C)nn(C)c3C)n2)n1`, the AC50 was > 39 µM (inactive).

For `CCOc1ccc(N(Cc2nc(-c3ccc(OC)cc3)oc2C)S(=O)(=O)c2ccccc2)cc1`, the concentration at half-maximal activity (AC50) is 7.28 µM.

On to `O=C(Nc1ccccc1F)N1C[C@@H]2N[C@H](C1)C2c1ccc(/C=C/c2ccccc2)cc1` (some centres not stated), for which the AC50 was 18.6 µM.

Regarding `O=C(Cc1ccccc1)N1CC(=O)N2[C@H](CO)[C@@H](c3ccc(-c4ccc(F)cc4)cc3)[C@@H]2C1`, the AC50 is 19.2 µM.

For the compound `Cc1cccc(NC2COC3(CCN(C(=O)c4ccsc4)C3)C2)c1` (configuration not stated), the concentration at half-maximal activity (AC50) was 28.1 µM. As for `O=C(NC1CCCC1)N1CCCCN2[C@H](CO)[C@H](c3ccc(-c4cccnc4)cc3)[C@H]2C1`, the figure is 18.2 µM; as for `CC(C)CC#Cc1ccc([C@@H]2[C@@H](CO)N3C(=O)CN(C(=O)c4cccc(F)c4)C[C@@H]23)cc1`, 16.4 µM and 13.5 µM; as for `CCc1cnc(N2[C@H](C#N)[C@H](c3ccc(C#Cc4ccccc4F)cc3)[C@@H]2CO)s1`, 11.3 µM. The result for `Cc1nc(N2CCOCC2)nc2c1CCN(C(=O)C1CC1)CC2` reads 21.7 µM. The result for `Cc1sc2ncnc(Oc3ccc(OCc4ccccc4)cc3)c2c1C` reads 7.16 µM and 9.76 µM; that for `COCCN1CCc2c(cnc(-c3cccnc3)c2C(=O)O)C1`, > 39 µM (inactive).
